# Measurements reported in patent US20160120858A1 (ACADEMIA SINICA, priority 2014, published 2016).
# How the values were obtained:
# NMDAR = experiment: NMDA-fEPSP extracellular recordings, hippocampal slices; type: cell-based, mouse; conditions: for NMDAR function (NMDA-fEPSPs) at ZnT3^−/− synapses: ZnT3^−/− hippocampal SC-CA1 synapses
# Protocol: (§1) For electrophysiological experiments, sagittal hippocampal slices (400 uM thick for extracellular, 300 uM thick for intracellular recordings) of Shank2^−/− mice (or ZnT3^−/− mice) and their wild-type littermates were prepared using a vibratome (Leica VT1200) in ice-cold dissection buffer containing (in mM) 212 sucrose, 25 NaHCO3, 5 KCl, 1.25 NaH2PO4, 0.5 CaCl2, 3.5 MgSO4, 10 D-glucose, 1.25 L-ascorbic acid, and 2 Na-pyruvate bubbled with 95% 02/5% CO2. CA3 was removed to prevent epileptiform activity. Slices were restored for 1 hour in 32° C. in a normal artificial CSF (ACSF) (In units of mM: 124 NaCl, 2.5 kCl, 1 NaH2PO4, 25 NaHCO3, 10 glucose, 2 CaC12, 2 Mg504 oxidized by 95% 02/5% CO2) For the recording, a single slice was moved to and maintained in submerged-type chamber at 28° C., continuously perfused with ACSF (2 mL/minute) saturated with 95% 02/5% CO2. Stimulation and recording pipettes were pulled from borosilicate glass capillaries (Harvard Apparatus) using a micropipette electrode puller (Narishege).
# For extracellular recordings, mouse hippocampal slices at the age of postnatal day 21 to 35 were used. Field excitatory postsynaptic potentials (fEPSPs) were recorded in the stratum radiatum of the hippocampal CA1 region using pipettes filled with ACSF (1 MΩ). fEPSP was amplified (Multiclamp 700B, Molecular Devices), and digitized (Digidata 1440A, Molecular
# Devices) for measurements. The Schaffer collateral pathway was stimulated every 20 seconds with pipettes filled with ACSF (0.3 to 0.5 MΩ). The stimulation intensity was adjusted to yield a half-maximal response, and three successive responses were averaged and expressed relative to the normalized baseline. To induce LTP, high frequency stimulation (100 Hz, 1 s) was applied after a stable baseline was acquired. […] To isolate NMDAR-mediated fEPSPs, ACSF containing 2 mM calcium, 0.1 mM magnesium, and 6,7-dinitroquinoxaline-2,3-dione (10 uM, DNQX, Tocris), which inhibits AMPAR-mediated EPSPs, were used.
# Shank2^−/− mice = experiment: Repetitive behaviors (jumping, grooming) in home cage; type: in vivo, mouse; conditions: 30 mg/kg i.p.; for Grooming / Jumping: Shank2^−/− mice, 2 hours prior to testing; for Repetitive behaviors: wild-type mice
# Protocol: The injection was performed 2 hours before (Shank2^−/− mice and wild-type littermates), or 3 hours before (Tbr1^+/− mice and wild-type littermates) behavioral assays at the discretion of the facility. A within-subjects design was designed with a one week washout period (FIG. 8), and divided animals into two groups, vehicle-first and clioquinol-first group, to rule out carryover effects. Each mouse received a single acute dose of vehicle or clioquinol, and underwent a single behavioral task, one task per week. Testing was conducted in dedicated behavioral test rooms during the light phase (three-chamber test) and the dark phase (repetitive behaviors and open field test). Shank2^−/− mice and their wild-type littermates in their home cages without bedding were used to measure times spent in repetitive behaviors including jumping and grooming. In this case, jumping is defined as mice planting rear feet and standing up by lifting front feet along the cage, in other words, the cage corner or a side wall, and jumping up such that both of the rear feed are separated from the bottom surface. Meanwhile, grooming is defined as stroking or scratching the face or the body with two front feet or licking a part of the body. The experiments and analysis were performed independently in a blind manner.
# AMPAR = experiment: AMPA-fEPSPs, input-output and paired pulse ratio, hippocampal slices; type: cell-based, mouse; conditions: 4 uM; for AMPA-fEPSPs: WT and KO; for Input-output relationship (AMPA-fEPSP slopes against fiber volley): WT and Shank2^−/− SC-CA1 synapses
# Protocol: as §1, with “Shank2^-/-” for “Shank2^−/−”, “ZnT3^-/-” for “ZnT3^−/−”, “([…]). For extracellular recordings, mouse hippocampal slices at the age of postnatal day 21 to 35 were used. Field excitatory postsynaptic potentials (fEPSPs) were recorded in the stratum radiatum of the hippocampal CA1 region using pipettes filled with ACSF (1 MΩ). fEPSP was amplified (Multiclamp 700B, Molecular Devices), and digitized (Digidata 1440A, Molecular Devices) for measurements. The Schaffer collateral pathway was stimulated every 20 seconds with pipettes filled with ACSF (0.3 to 0.5 MΩ). The stimulation intensity was adjusted to yield a half-maximal response, and three successive responses were averaged and expressed relative to the normalized baseline. To induce LTP, high frequency stimulation (100 Hz, 1 s) was applied after a stable baseline was acquired.” for “(Narishege).”
structure (smiles),measurement,setting,value
"Oc1c(I)cc(Cl)c2cccnc12 [clioquinol, 5-Chloro-7-Iodo-8-Hydroxyquinoline]",NMDAR function (NMDA-fEPSPs) in the presence of PP3,"NMDAR; CQ 4 uM, 20 minutes",effectively enhances NMDAR function
same,NMDAR function (NMDA-fEPSPs) in the presence of Ca-EDTA,"NMDAR; CQ 4 uM, 20 minutes, Ca-EDTA 2 mM throughout recordings",fails to enhance NMDAR function
same,NMDAR function (NMDA-fEPSPs) in the presence of PP2,"NMDAR; CQ 4 uM, 20 minutes, PP2 10 uM throughout recordings",fails to enhance NMDAR function
same,NMDAR function (NMDA-fEPSPs) in the presence of SU6656,"NMDAR; CQ 4 uM, 20 minutes, SU6656 10 uM throughout recordings",fails to enhance NMDAR function
same,NMDAR function (NMDA-fEPSPs) in the presence of TPEN,"NMDAR; CQ 4 uM, 20 minutes, TPEN 25 uM throughout recordings",fails to enhance NMDAR function
same,Initial slopes of NMDA-fEPSPs,"NMDAR; Shank2^−/− SC-CA1 synapses, clioquinol for 20 minutes",~150 % of baseline levels
same,NMDAR function (NMDA-fEPSPs) in the presence of cuprizone,NMDAR; WT and KO slices,enhances NMDAR function
same,NMDAR function (NMDA-fEPSPs),"NMDAR; WT and Shank2^−/− SC-CA1 synapses, 4 uM, 20 minutes",enhances NMDAR function
same,NMDAR function (NMDA-fEPSPs) at ZnT3^−/− synapses,NMDAR,had no effect on NMDAR activity
same,NMDAR function (NMDA-fEPSPs) at ZnT3^−/− synapses,NMDAR; listed as CQ,fails to enhance NMDAR function
same,Grooming,Shank2^−/− mice,not influenced
same,Jumping,Shank2^−/− mice,not influenced
same,Grooming,Shank2^−/− mice; listed as CQ,has no effect on grooming
same,Jumping,Shank2^−/− mice; listed as CQ,fails to improve jumping
same,Grooming,Shank2^−/− mice; listed as Clioquinol,had no effect
same,Jumping,Shank2^−/− mice; listed as Clioquinol,had no effect
same,Repetitive behaviors,Shank2^−/− mice,did not affect repetitive behaviors
same,Repetitive behaviors,Shank2^−/− mice; listed as Clioquinol,had no effect
same,AMPA-fEPSPs,AMPAR,not affected
same,AMPA-fEPSPs,AMPAR; listed as CQ,has no effect on AMPA-fEPSPs
same,Input-output relationship (AMPA-fEPSP slopes against fiber volley),AMPAR,had no effect
same,Input-output relationship (AMPA-fEPSP slopes against fiber volley),AMPAR; listed as CQ,has no effect on the input-output relationship
